{"source": "patent US4235962A", "about": "“Combination kit for transaminase assay of a body fluid” (The Dow Chemical Company, priority 1978, dated 1980)", "key": {"[1]": {"target": "AST (Sus scrofa, UniProt P00503)", "sequence (P00503 2-413 limits assumed)": "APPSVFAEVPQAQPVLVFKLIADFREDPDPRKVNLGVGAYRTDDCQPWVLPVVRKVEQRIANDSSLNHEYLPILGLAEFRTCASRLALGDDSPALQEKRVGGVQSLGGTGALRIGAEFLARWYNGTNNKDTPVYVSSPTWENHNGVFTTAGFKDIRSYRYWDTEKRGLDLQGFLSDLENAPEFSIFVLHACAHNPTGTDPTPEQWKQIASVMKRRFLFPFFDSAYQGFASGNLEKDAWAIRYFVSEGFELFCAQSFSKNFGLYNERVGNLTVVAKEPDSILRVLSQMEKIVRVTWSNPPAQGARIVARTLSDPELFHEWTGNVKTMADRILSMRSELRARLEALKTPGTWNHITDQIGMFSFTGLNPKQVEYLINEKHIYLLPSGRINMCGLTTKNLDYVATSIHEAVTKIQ", "settings": "cited from earlier work"}, "[2]": {"target": "T1, ALT (alanine 2-oxoglutarate aminotransferase) (Homo sapiens, UniProt P24298)", "T1 sequence (P24298 2-496 limits assumed)": "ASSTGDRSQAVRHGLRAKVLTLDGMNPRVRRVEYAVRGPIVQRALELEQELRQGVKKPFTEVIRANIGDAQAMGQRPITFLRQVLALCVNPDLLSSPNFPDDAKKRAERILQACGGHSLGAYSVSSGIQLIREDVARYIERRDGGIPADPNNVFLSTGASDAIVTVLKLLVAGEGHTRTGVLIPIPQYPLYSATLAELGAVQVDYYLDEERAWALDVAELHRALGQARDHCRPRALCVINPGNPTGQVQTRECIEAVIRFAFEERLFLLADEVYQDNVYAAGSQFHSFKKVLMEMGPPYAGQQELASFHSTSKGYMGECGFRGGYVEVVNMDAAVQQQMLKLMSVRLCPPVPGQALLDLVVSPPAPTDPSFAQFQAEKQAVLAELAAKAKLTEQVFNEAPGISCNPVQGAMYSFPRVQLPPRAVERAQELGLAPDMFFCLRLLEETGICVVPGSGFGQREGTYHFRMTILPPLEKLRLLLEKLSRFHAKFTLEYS", "description": "For precise measurement of a bimolecular reaction of the type under discussion, the rate of a reaction, at a given \"B\" concentration should be independent of A's concentration (i.e. at or near apparent Vmax with respect to A). However, for situations where A's concentrations are very low (i.e. endogenous serum contributions of amino acids in a side reaction situation) it becomes important to be able to access the extent of measurement of the apparent maximum velocity of said \"contaminant reaction.\" This being the case of a combination AST/ALT test where one is concerned with the measurement of AST in an ALT test or vice versa, a mathematical outline is in order. Both side reactions are quantitatively discussed below.\nALT, likewise having a \"ping pong\" mechanism of catalysis, can kinetically be described identically: [formula] […] (KB /B+1 is again <<KA /A.\nTherefore the [formula] […] Therefore the % V1 apparent as measured [formula]"}}}
{"smiles": "O=C(O)CCC(=O)C(=O)O", "note": "[2-oxoglutarate, 2-Oxoglutarate]", "values": [{"measurement": "Km", "setting": "[1]; read-out: KB, B = 2-oxoglutarate", "value": 100, "unit": "µM"}]}
{"smiles": "C[C@H](N)C(=O)O", "note": "[alanine, L-alanine]", "values": [{"measurement": "Theoretical turnover of ALT", "setting": "[2]", "value": 1.32, "unit": "% Vmax"}]}
{"smiles": "N[C@@H](CC(=O)O)C(=O)O", "note": "[aspartate, L-aspartate]", "values": [{"measurement": "KA", "setting": "[1]; A = aspartate", "value": 0.90, "unit": "mM"}]}
